Key:
[1] = test system: shipping fever; assay: treating cattle with xylitol in solution to reduce or prevent shipping fever; type: in vivo; details: 1% xylitol in solution; lower limit of tested effectiveness
Description: (§1) Embodiments of the present invention are directed to treating cattle with xylitol in solution in order to reduce or prevent shipping fever, and/or ailments associated with close quartering of cattle. The solution may be a saline based solution for some embodiments, but the solution may also have just a water base. A maximum strength may be a saturated solution comprising approximately of 64 grams of xylitol per 100 cubic centimeters (cc's) of solution. The inventor has yet to determine a precise lower limit of xylitol that would be effective, but as little as 1% xylitol in solution has shown to be effective. It should be understood however, that a 1% xylitol in solution should not be construed as a lower limit of effectiveness; rather, this is only the lower limit of tested effectiveness. Smaller percentages of the xylitol in solution may likewise be effective, and thus their use would be within the scope and spirit of the invention.
The precise mode of application of the xylitol in solution may vary substantially. In at least some embodiments, nostrils of the cattle may be treated directly prior to close quartering, such as shipping. In particular, in these embodiments the xylitol in solution be applied to each nostril of each animal in the form of a mist (nebulized), which application preferably takes place for approximately two respiratory cycles of the animal for each nostril. […]

[2] = saturated solution of xylitol (maximum strength); type: physicochemical; details: saline or water based solution
Description: as §1

[3] = test system: pathogenic bacteria; details: several pathogenic bacteria exposed to xylitol; cited from earlier work

saturated solution, xylitol per 100 cubic centimeters of solution [2]: ~64 grams per 100 cubic centimeter
Structure (SMILES): OC[C@@H](O)[C@H](O)[C@@H](O)CO [xylitol]
effectiveness of xylitol in solution [1]: effective
adherence of bacteria to their environment [3]: less adherent

From patent US20040228804A1, “Nasal administration of xylitol to a non-human mammal” (priority 2003, published 2004)
